# Experimental data taken from PubChem BioAssay AID1508610 (The Scripps Research Institute Molecular Screening Center, 2020).
# Active and inactive are the calls of the source. How the calls were made is not given here.
# Molecular target: G-protein coupled receptor 151 (Homo sapiens) (UniProt Q8TDV0)
# Experiment: GPR151 activator potency, dose response, cell-based (AID 1508610)
# Settings: cell-based GPR151 activation reporter
# Sequence of G-protein coupled receptor 151 (Homo sapiens) (Q8TDV0 whole entry, looked up): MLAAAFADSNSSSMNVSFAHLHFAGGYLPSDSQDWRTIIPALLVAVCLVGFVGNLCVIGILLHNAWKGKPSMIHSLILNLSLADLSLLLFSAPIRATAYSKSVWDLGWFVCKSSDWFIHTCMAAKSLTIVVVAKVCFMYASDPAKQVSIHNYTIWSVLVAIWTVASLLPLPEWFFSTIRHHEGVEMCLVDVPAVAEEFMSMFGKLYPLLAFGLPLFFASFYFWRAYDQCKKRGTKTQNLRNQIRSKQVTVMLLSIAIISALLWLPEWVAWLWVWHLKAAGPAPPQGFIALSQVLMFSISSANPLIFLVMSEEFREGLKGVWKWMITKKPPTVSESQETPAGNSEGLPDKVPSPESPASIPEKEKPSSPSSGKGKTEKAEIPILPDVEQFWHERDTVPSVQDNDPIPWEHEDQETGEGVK
row,SMILES,EC50
1,Cc1nc(NC(=O)CSc2ccc(-c3nc4ccccc4[nH]3)cn2)sc1C,> 28 µM (inactive)
2,COc1ccc(NC(=O)CCC(=O)Oc2ccc(C)cc2)cc1,> 28 µM (inactive)
3,Cn1c(=O)c2c(SCCC3OCCO3)nc(C3CCCCC3)nc2n(C)c1=O,> 27.6 µM (inactive)
4,Cc1ccc(C(=O)CSc2[nH]c(=O)ncc2C)cc1,> 28.6 µM (inactive)
5,O=C(COc1ccc(C(=O)NCCc2ccccc2)cc1)Nc1ccccc1F,> 28 µM (inactive)
6,O=C(O)c1ccc(-c2nc3ccccc3s2)s1,> 30 µM (inactive)
7,O=C(O)CN1CCN(Cc2ccc(Cl)cc2)C1=O,> 28 µM (inactive)
8,CCOCCCNC(=O)c1cc([N+](=O)[O-])ccc1Cl,> 28 µM (inactive)
9,Cc1sc(NC(=O)c2cc3ccccc3oc2=O)nc1-c1ccc(Br)cc1,> 18.6 µM (inactive)
10,COc1cccc(NC(=O)c2oc3ccc4c(c3c2C)C(=O)CC(C)(C)O4)c1,> 28 µM (inactive)
11,O=C(Nc1ccc(-c2cccc(F)c2)cc1)C1CCCN(C(=O)C2CCOCC2)C1 (stereo not given),> 28 µM (inactive)
12,CCOC(=O)c1c(NC(=O)CN2CC(C)OC(C)C2)sc(C)c1C (stereo not given),> 31.3 µM (inactive)
13,Cc1ccc(-c2nc3ccccc3[nH]2)cc1,> 35.1 µM (inactive)
14,COc1cc(OC)cc(C(=O)NC2CCCCCCC2)c1,> 39.8 µM (inactive)
15,COc1cc(OC)cc(C(=O)Nc2ccc3c(c2)OCO3)c1,> 31.5 µM (inactive)
16,CC(C)c1ccc(N(CC(=O)NCCSc2ccccc2)S(C)(=O)=O)cc1,> 28 µM (inactive)
17,COc1cccc(NC(=O)c2cc(C3CC3)[nH]n2)c1,> 28 µM (inactive)
18,Cn1c(/C=C/c2ccccc2)nc2ccccc21,> 37 µM (inactive)
19,Cc1cccc(N2CCN(C(=O)c3ccc(S(=O)(=O)c4ccc(F)cc4)c([N+](=O)[O-])c3)C(C)C2)c1 (stereo not given),> 23.3 µM (inactive)
20,COc1ccc(C(=O)N(C)Cc2ccccc2)cc1I,> 28 µM (inactive)
21,O=C(Nc1nc(-c2cc3ccccc3o2)cs1)c1cc2ccccc2oc1=O,> 24.7 µM (inactive)
22,COc1cccc2oc(-c3ccccc3)cc(=O)c12,> 28 µM (inactive)
23,C=CCOc1ccc(C(=O)N(Cc2nc(-c3ccc(OC)c(OC)c3)no2)C(C)C)cc1,> 28 µM (inactive)
24,Cc1nn(-c2ccc(Nc3ccc(NC(=O)c4cccc(F)c4)cc3)nn2)c(C)c1C,inactive
25,CNc1nc2c(-c3ccc(Cl)cc3)nnn2c2ccccc12,> 28 µM (inactive)

row,SMILES,EC50
1,CC(=O)Oc1ccccc1C(=O)Nc1ncc([N+](=O)[O-])s1,> 28 µM (inactive)
2,Cc1ccc(/C=N/NC(=O)Cc2cccn2C)s1,> 28 µM (inactive)
3,O=C(Cn1[nH]c(=O)c2ccccc2c1=O)Nc1cccnc1,0.00579 µM
4,COc1ccc(N=C2SC(CC(=O)Nc3ccc(OC)cc3OC)C(=O)N2C)cc1 (stereo not given),0.00244 µM
5,O=C1NC(=S)S/C1=C\c1ccc(C(=O)O)cc1,> 29.6 µM (inactive)
6,CC(C)(C)NS(=O)(=O)c1ccc(NC(=O)COc2ccc(Br)cc2)cc1,> 28 µM (inactive)
7,Cc1cc2nc(-c3ccc[nH]c3=O)[nH]c2cc1C,> 28.1 µM (inactive)
8,O=C(O)c1ccc(-n2cc(-c3cnccn3)cn2)cc1,> 28 µM (inactive)
9,CC[n+]1cc(C)ccc1/C=C/c1ccc(N(C)C)cc1,> 29.7 µM (inactive)
10,CC(=O)Nc1ccc(Nc2ccnc(N3CCc4ccccc4C3)n2)cc1,inactive
11,COc1ccc(OC(C)C(=O)Nc2cc(C)ccc2C)cc1 (stereo not given),> 32 µM (inactive)
12,CC(C)C[C@@H]1NC(=O)[C@@H]2C[C@H](NC(=O)Nc3cccc(C(F)(F)F)c3)CN2C1=O,> 28 µM (inactive)
13,COC(=O)C(NC(=O)c1cccc(Cl)c1)(Nc1ccc(Cl)cn1)C(F)(F)F (stereo not given),> 28 µM (inactive)
14,O=C1CC(c2ccc(O)cc2)Oc2ccccc21 (stereo not given),> 28 µM (inactive)
15,COc1ccc(C[C@H](N)C(=O)N[C@@H]2[C@@H](CO)OC(n3cnc4c(N(C)C)ncnc43)[C@@H]2O)cc1 (stereo not given in full),> 28 µM (inactive)
16,O=C(COc1ccccc1Cl)Nc1nccs1,> 39.1 µM (inactive)
17,COc1ccc(S(=O)(=O)Nc2ccc(F)c(F)c2)cc1C,> 28 µM (inactive)
18,CCOc1cc(NC(=O)C2CCCO2)c(OCC)cc1NC(C)=O (stereo not given),> 9.34 µM (inactive)
19,CCOc1ccc(NC(=O)C(=O)NCCN2CCN(S(=O)(=O)c3ccc4ccccc4c3)CC2)cc1,> 18.8 µM (inactive)
20,O=C(Nc1nc2ccccc2[nH]1)c1ccc(Cl)cc1Cl,> 29.3 µM (inactive)
21,CSc1cccc(CN2CCN(Cc3ccccc3F)C(CCO)C2)c1 (stereo not given),> 28 µM (inactive)
22,COc1cc(C2NC(=O)NC(C)=C2C(C)=O)cc(Br)c1OCc1ccccc1 (stereo not given),> 28 µM (inactive)
23,O=S(=O)(NN=C1CCCCCC1)c1ccccc1,> 28 µM (inactive)
24,CSc1nccc(-c2cc(Cl)c3c(c2)CC(CNC(=O)c2ccoc2)O3)n1 (stereo not given),> 28 µM (inactive)
25,O=C(Nc1ccc(NC(=O)c2cccc3c(Br)cccc23)cc1)c1ccco1,> 24.4 µM (inactive)
